Test [1] has as its system A549. Kind of test: Downregulation of uPA protein expression in human A549 cell extract at 3.40 uM after 48 hrs by ELISA (reference value: 11.0000 +/-1.60 ng/ml). In kind it is functional.
Test [2] has as its system MCF7. The test is described as follows: Downregulation of uPA protein expression in human MCF7 cell extract at 0.67 uM after 48 hrs by ELISA (reference value: 1 1.4000 +/- 1.40 ng/ml). In kind it is functional.
The subject of test [3] is MCF7. The test is described as follows: Downregulation of uPA protein expression in human MCF7 cell extract at 0.167 ug/well after 48 hrs by ELISA (reference value: 1 1.4000 +/- 1.40 ng/ml).
The target of test [4] is Urokinase plasminogen activator surface receptor (Homo sapiens, UniProt Q03405). Kind of test: Binding affinity to uPAR.
Urokinase plasminogen activator surface receptor, sequence (Q03405 whole entry): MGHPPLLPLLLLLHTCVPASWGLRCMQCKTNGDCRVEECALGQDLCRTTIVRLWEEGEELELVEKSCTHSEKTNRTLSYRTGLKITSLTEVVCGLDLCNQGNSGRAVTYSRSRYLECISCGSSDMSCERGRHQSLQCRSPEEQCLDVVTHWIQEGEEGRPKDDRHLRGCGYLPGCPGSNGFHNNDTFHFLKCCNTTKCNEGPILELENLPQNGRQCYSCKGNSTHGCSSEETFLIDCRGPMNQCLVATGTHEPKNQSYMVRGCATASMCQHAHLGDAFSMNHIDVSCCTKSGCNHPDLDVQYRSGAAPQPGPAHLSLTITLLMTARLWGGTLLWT
The test system of test [5] is A549. The test is described as follows: Downregulation of uPA protein expression in human A549 cell extract at 0.85 uM after 48 hrs by ELISA. In kind it is functional.
The test system of test [6] is MCF7. The test is described as follows: Downregulation of uPA protein expression in human MCF7 cell extract at 0.67 uM after 48 hrs by ELISA. In kind it is functional.
In test [7] the test system is Raji. Kind of test: Inhibition of tumor promotion in human Raji cells assessed as TPA-induced Epstein-Barr virus early antigen activation at 500 mol ratio/TPA after 48 hrs by indirect immunofluorescence analysis relative to TPA alone. Set-up: scale not given: the % may be the effect or the level left. In kind it is functional.
Test [8] relates to MCF7. Kind of test: Downregulation of uPA protein expression in human MCF7 cell extract at 0.084 uM after 48 hrs by ELISA. In kind it is functional.
Test [9] deals with A549. The test is described as follows: Downregulation of uPA protein expression in human A549 cell extract at 0.85 uM after 48 hrs by ELISA (reference value: 11.0000 +/-1.60 ng/ml). In kind it is functional.
In test [10] the test system is MCF7. The test is described as follows: Downregulation of uPA protein expression in human MCF7 cell extract at 0.084 ug/well after 48 hrs by ELISA (reference value: 1 1.4000 +/- 1.40 ng/ml).
Test [11] relates to MCF7. Kind of test: Downregulation of uPA protein expression in human MCF7 cell extract at 0.167 uM after 48 hrs by ELISA. In kind it is functional.
The subject of test [12] is A549. Kind of test: Downregulation of uPA protein expression in human A549 cell extract at 1.70 uM after 48 hrs by ELISA. In kind it is functional.
Test [13] concerns A549. Kind of test: Downregulation of uPA protein expression in human A549 cell extract at 0.425 uM after 48 hrs by ELISA. In kind it is functional.
Test [14] relates to A549. The test is described as follows: Downregulation of uPA protein expression in human A549 cell extract at 3.40 uM after 48 hrs by ELISA. It is filed as functional.
In test [15] the test system is A549. The test is described as follows: Cytotoxicity against human A549 cells after 72 hrs by alamar blue assay. It is filed as functional, cell-based. As to conditions: A549, 72 h.
Test [16] relates to Raji. Kind of test: Inhibition of tumor promotion in human Raji cells assessed as TPA-induced Epstein-Barr virus early antigen activation at 1000 mol ratio/TPA after 48 hrs by indirect immunofluorescence analysis relative to TPA alone. Set-up: scale not given: the % may be the effect or the level left. In kind it is functional.
The subject of test [17] is A549. Kind of test: Downregulation of uPA protein expression in human A549 cell extract at 1.70 uM after 48 hrs by ELISA (reference value: 11.0000 +/-1.60 ng/ml). It is filed as functional.
For test [18], the system named is MCF7. The test is described as follows: Downregulation of uPA protein expression in human MCF7 cell extract at 0.335 ug/well after 48 hrs by ELISA (reference value: 1 1.4000 +/- 1.40 ng/ml).
For test [19], the system named is MCF7. Kind of test: cells. The following applies: Homo sapiens, MCF7, 48 h.
Description: Cytotoxicity against human MCF7 cells after 48 hrs by sulforhodamine B assay
In test [20] the test system is Raji. The test is described as follows: Inhibition of tumor promotion in human Raji cells assessed as TPA-induced Epstein-Barr virus early antigen activation at 10 mol ratio/TPA after 48 hrs by indirect immunofluorescence analysis relative to TPA alone. Details: scale not given: the % may be the effect or the level left. In kind it is functional.
Test [21] relates to A549. The test is described as follows: Downregulation of uPA protein expression in human A549 cell extract at 0.425 uM after 48 hrs by ELISA (reference value: 11.0000 +/-1.60 ng/ml). It is filed as functional.
Test [22] has as its system Raji. Kind of test: Inhibition of tumor promotion in human Raji cells assessed as TPA-induced Epstein-Barr virus early antigen activation at 100 mol ratio/TPA after 48 hrs by indirect immunofluorescence analysis relative to TPA alone. It is filed as functional. Set-up: scale not given: the % may be the effect or the level left.
The subject of test [23] is MCF7. Kind of test: Downregulation of uPA protein expression in human MCF7 cell extract at 0.335 uM after 48 hrs by ELISA. In kind it is functional.
In test [24] the test system is MCF7. Kind of test: Downregulation of uPA protein expression in human MCF7 cell extract at 0.0625 ug/well after 48 hrs by ELISA (reference value: 1 1.4000 +/- 1.40 ng/ml).
Test [25] concerns MCF7. Kind of test: Downregulation of uPA protein expression in human MCF7 cell extract at 0.25 uM after 48 hrs by ELISA (reference value: 1 1.4000 +/- 1.40 ng/ml). In kind it is functional.
Test [26] deals with A549. The test is described as follows: Downregulation of uPA protein expression in human A549 cell extract at 12 uM after 48 hrs by ELISA (reference value: 11.00 +/-1.60 ng/ml). It is filed as functional.
The test system of test [27] is A549. The test is described as follows: Downregulation of uPA protein expression in human A549 cell extract at 1.5 uM after 48 hrs by ELISA (reference value: 11.00 +/-1.60 ng/ml). It is filed as functional.
Test [28] concerns MCF7. The test is described as follows: Downregulation of uPA protein expression in human MCF7 cell extract at 0.0625 uM after 48 hrs by ELISA. In kind it is functional.
Test [29] concerns MCF7. Kind of test: Downregulation of uPA protein expression in human MCF7 cell extract at 0.125 uM after 48 hrs by ELISA (reference value: 1 1.4000 +/- 1.40 ng/ml). In kind it is functional.
For test [30], the system named is MCF7. The test is described as follows: Downregulation of uPA protein expression in human MCF7 cell extract at 0.125 uM after 48 hrs by ELISA. In kind it is functional.
The subject of test [31] is A549. The test is described as follows: Downregulation of uPA protein expression in human A549 cell extract at 6 uM after 48 hrs by ELISA (reference value: 11.00 +/-1.60 ng/ml). It is filed as functional.
In test [32] the test system is MCF7. The test is described as follows: Downregulation of uPA protein expression in human MCF7 cell extract at 0.25 uM after 48 hrs by ELISA. It is filed as functional.
Test [33] relates to MCF7. The test is described as follows: Downregulation of uPA protein expression in human MCF7 cell extract at 0.50 uM after 48 hrs by ELISA. In kind it is functional.
Test [34] concerns MCF7. Kind of test: Downregulation of uPA protein expression in human MCF7 cell extract at 0.50 uM after 48 hrs by ELISA (reference value: 1 1.4000 +/- 1.40 ng/ml). In kind it is functional.
Test [35] relates to A549. The test is described as follows: Downregulation of uPA protein expression in human A549 cell extract at 3 uM after 48 hrs by ELISA (reference value: 11.00 +/-1.60 ng/ml). It is filed as functional.

These results are taken from ChEMBL document CHEMBL2203035, “Synthesis and docking studies of novel antitumor benzimidazoles” (Bioorg Med Chem, 2012).

pIC50, pKi: −log10 of the molar value.

For `C=CCn1c(CN2C3=Nc4ccccc4C(=O)NC3=Nc3ccccc32)nc2ccccc21`, the Activity in the test on A549 [1] is 3.8 ng/mL; with MCF7 [2], 4.4 ng/mL; in the test on MCF7 [3], 7.7 ng/mL; in the test on A549 [5], 44%; in the test on MCF7 [6] it was 61%; with Raji [7], 45.8%. Moreover, the Activity in the test with MCF7 [8] came to 23%; with A549 [9], 6.2 ng/mL; with MCF7 [10], 8.8 ng/mL; with MCF7 [11], 33%; in the test with A549 [12], 52%; in the test with A549 [13] it was 33%. Further, the Activity with A549 [14] stood at 65%; with Raji [16], 11.6%; with A549 [17], 5.3 ng/mL; with MCF7 [18] it was 7 ng/mL; with Raji [20] it was 100%; in the test on A549 [21], 7.4 ng/mL. Further, the Activity in the test on Raji [22] was found to be 77.9%; with MCF7 [23], 39%. In test [4], this molecule had a pKi of 12.54. In the test with A549 [15], the pIC50 was 5.47. Moreover, the IC50 with MCF7 [19] was determined as 0.667 µg/well.

Consider `N#Cc1cc(-c2ccccc2)n(Cc2nc3ccccc3[nH]2)c1N`, for which the Activity in the test with MCF7 [24] is 7.4 ng/mL; with Raji [7], 48.3%; with MCF7 [25], 4 ng/mL; with A549 [26], 9.2 ng/mL; in the test on A549 [27], 11.6 ng/mL; in the test with MCF7 [28] it was 35%. The Activity came out at 18% with Raji [16]; 5.7 ng/mL in the test on MCF7 [29]; 50% in the test on MCF7 [30]; 100% with Raji [20]; 9.8 ng/mL in the test on A549 [31]; 82% in the test with Raji [22]. Also, the Activity in the test on MCF7 [32] was 65%; in the test on MCF7 [33], 75%; in the test with MCF7 [34], 2.8 ng/mL; with A549 [35], 9.7 ng/mL. The pKi in test [4] was 12.23. Also, the negative-log IC50 (pIC50) in the test on A549 [15] was 4.92. This molecule gave an IC50 in the test on MCF7 [19] of 0.515 µg/well.
